# Measured values: patent publication US20240043420A1, “7-AZAINDOLE COMPOUNDS FOR INHIBITION OF BCR-ABL TYROSINE KINASES” (EnLiven Therapeutics, Inc., priority 2020, published 2024)
# Legend:
# [1] = molecular target: ABL1 (T315I) (Homo sapiens, UniProt P00519, T315I); test: Luminescence-based ABL kinase assay (ADP-Glo, 300 μM ATP), T315I mutant; format: biochemical
# Procedure: (§1) Kinase activity of ABL1 was measured using the ADP-Glo system (Promega), which measures formation of ADP using a luminescence-based method. Compounds were serially diluted in DMSO. 20 nL of compound or DMSO only (high control, HC) were added to a 384-well plate (OptiPlate-384, PerkinElmer) using an Echo550 liquid handler (Labcyte). 15 μL of kinase solution (10 mM MgCl2, 0.01% Brij-35, 2 mM DTT, 0.05% BSA, 1 mM EGTA, 50 mM HEPES pH 7.5, and 3.325 nM ABL1 [Carna Biosciences]) were added to each well of the 384-well plate containing the compounds. No enzyme control wells were included (low control, LC). The plate was incubated at room temperature for 30 minutes. 5 μL of a second solution containing 10 mM MgCl2, 0.01% Brij-35, 2 mM DTT, 0.05% BSA, 1 mM EGTA, 50 mM HEPES pH 7.5, 6 μM Peptide 2 (Perkin Elmer, Cat No 760346), and 1.2 mM ATP were added to each well to start the kinase reaction. The plate was incubated for 90 minutes at room temperature. 20 μL of ADP-Glo reagent (Promega) were then added to each well and the plate was incubated for 40 minutes at room temperature. 40 μL of kinase detection reagent (Promega) was added to each well and the plate was incubated for an additional 45 minutes at room temperature. During this step, ADP was converted to ATP, a substrate for luciferase, to produce luminescence signal. Luminescence was measured on an Envision plate reader (Perkin Elmer). Luminescence signal positively correlates with kinase activity. The percent kinase activity was calculated as follows: percent kinase activity=100×(Lumsample−LumLC)/(LumHC−LumLC). As noted above, DMSO only and no enzyme wells were used as high and low controls, respectively. IC50 values were calculated using the XLFit software.
# [2] = molecular target: T1, ABL1 (Homo sapiens, UniProt P00519); test: Luminescence-based ABL kinase assay (ADP-Glo, 300 μM ATP); format: biochemical
# T1 construct: purchased Carna Biosciences
# Procedure: as §1
SMILES,IC50 [1] [nM],IC50 [2] [nM]
"COc1ccccc1-c1c[nH]c2nc(NC(=O)[C@H]3C[C@@H]3CC#N)ccc12 (relative stereo) [Compound 107, trans-2-(cyanomethyl)-N-(3-(2-methoxyphenyl)-1H-pyrrolo[2,3-b]pyridin-6-yl)cyclopropane-1-carboxamide]",19.5,151
"O=C(Nc1ccc2c(-c3cccnc3OCC3CC3)c[nH]c2n1)C1CC1F (single isomer, unassigned) [Example S148, Enantiomer 1, N-(3-(2-(cyclopropylmethoxy)pyridin-3-yl)-1H-pyrrolo[2,3-b]pyridin-6-yl)-2-fluorocyclopropane-1-carboxamide Enantiomer 1]",1810,408
"COc1cccc(OC)c1-c1c[nH]c2nc(NC(=O)C3CC3CN3CCNCC3)ccc12 (single isomer, unassigned) [Example S150, Enantiomer 2, N-[3-(2,6-dimethoxyphenyl)-1H-pyrrolo[2,3-b]pyridin-6-yl]-2-(piperazin-1-ylmethyl)cyclopropane-1-carboxamide]",27.2,30
"COc1c(-c2c[nH]c3nc(NC(=O)C4CC4)ccc23)ccc2[nH]ncc12 [Compound 16, N-[3-(4-methoxy-1H-indazol-5-yl)-1H-pyrrolo[2,3-b]pyridin-6-yl]cyclopropanecarboxamide]",> 10000,> 10000
"O=C(Nc1ccc2c(-c3ccc4[nH]ccc4c3)c[nH]c2n1)C1CC1 [Compound 18, N-[3-(1H-indol-5-yl)-1H-pyrrolo[2,3-b]pyridin-6-yl]cyclopropanecarboxamide]",14.5,33
"O=C(Nc1ccc2c(-c3ccc4cc[nH]c4c3)c[nH]c2n1)C1CC1 [Compound 20, N-(3-(1H-indol-6-yl)-1H-pyrrolo[2,3-b]pyridin-6-yl)cyclopropanecarboxamide]",27.7,110
"O=C(Nc1ccc2c(-c3ccc4c(c3)NCC4)c[nH]c2n1)C1CC1 [Compound 25, N-[3-(2,3-dihydro-1H-indol-6-yl)-1H-pyrrolo[2,3-b]pyridin-6-yl]cyclopropanecarboxamide]",74.3,776
"CNc1ccc(-c2c[nH]c3nc(NC(=O)C4CC4)ccc23)c(OC)n1 [Compound 30, N-[3-[2-methoxy-6-(methylamino)pyridin-3-yl]-1H-pyrrolo[2,3-b]pyridin-6-yl]cyclopropanecarboxamide]",90.2,148
"Cc1cc(N)ncc1-c1c[nH]c2nc(NC(=O)C3CC3)ccc12 [Compound 34, N-[3-(6-amino-4-methylpyridin-3-yl)-1H-pyrrolo[2,3-b]pyridin-6-yl]cyclopropanecarboxamide]",731,159
"CNc1cc(C)c(-c2c[nH]c3nc(NC(=O)C4CC4)ccc23)cn1 [Compound 35, N-[3-[4-methyl-6-(methylamino)pyridin-3-yl]-1H-pyrrolo[2,3-b]pyridin-6-yl]cyclopropanecarboxamide]",774,599
"Nc1ncccc1-c1c[nH]c2nc(NC(=O)C3CC3)ccc12 [Compound 36, N-[3-(2-aminopyridin-3-yl)-1H-pyrrolo[2,3-b]pyridin-6-yl]cyclopropanecarboxamide]",690,202
"Nc1cccc(-c2c[nH]c3nc(NC(=O)C4CC4)ccc23)n1 [Compound 38, N-(3-(6-aminopyridin-2-yl)-1H-pyrrolo[2,3-b]pyridin-6-yl)cyclopropanecarboxamide]",332,689
"CNc1cccc(-c2c[nH]c3nc(NC(=O)C4CC4)ccc23)n1 [Compound 39, N-(3-(6-(methylamino)pyridin-2-yl)-1H-pyrrolo[2,3-b]pyridin-6-yl)cyclopropanecarboxamide]",245,195
"Nc1ccc(-c2c[nH]c3nc(NC(=O)C4CC4)ccc23)cn1 [Compound 40, N-[3-(6-aminopyridin-3-yl)-1H-pyrrolo[2,3-b]pyridin-6-yl]cyclopropanecarboxamide]",170,121
"O=C(Nc1ccc2c(-c3c(F)cccc3F)c[nH]c2n1)C1CC1 [Compound 46, N-(3-(2,6-difluorophenyl)-1H-pyrrolo[2,3-b]pyridin-6-yl)cyclopropanecarboxamide]",20.6,86.4
"O=C(Nc1ccc2c(-c3ccn4ccnc4c3)c[nH]c2n1)C1CC1 [Compound 55, N-(3-[imidazo[1,2-a]pyridin-7-yl]-1H-pyrrolo[2,3-b]pyridin-6-yl)cyclopropanecarboxamide]",1030,114
"Cn1cc(-c2c[nH]c3nc(NC(=O)C4CC4)ccc23)ccc1=O [Compound 57, N-[3-(1-methyl-6-oxopyridin-3-yl)-1H-pyrrolo[2,3-b]pyridin-6-yl]cyclopropanecarboxamide]",3870,1090
"COc1cc2cn[nH]c2cc1-c1c[nH]c2nc(NC(=O)[C@H]3C[C@H]3F)ccc12 [Compound 59, (1R,2R)-2-fluoro-N-[3-(5-methoxy-1H-indazol-6-yl)-1H-pyrrolo[2,3-b]pyridin-6-yl]cyclopropane-1-carboxamide]",11,8.62
"CN(C)c1ncccc1-c1c[nH]c2nc(NC(=O)C3CC3)ccc12 [Compound 65, N-(3-(2-(dimethylamino)pyridin-3-yl)-1H-pyrrolo[2,3-b]pyridin-6-yl)cyclopropanecarboxamide]",8700,158
"COc1c(-c2c[nH]c3nc(NC(=O)[C@@H]4C[C@@H]4F)ccc23)ccc2nccn12 [Compound 73, (1S,2S)-2-fluoro-N-(3-(5-methoxyimidazo[1,2-a]pyridin-6-yl)-1H-pyrrolo[2,3-b]pyridin-6-yl)cyclopropane-1-carboxamide]",> 10000,2460
"COc1ncc(F)cc1-c1c[nH]c2nc(NC(=O)NCCN(C)C)ccc12 [Compound 80, 3-[2-(dimethylamino)ethyl]-1-[3-(5-fluoro-2-methoxypyridin-3-yl)-1H-pyrrolo[2,3-b]pyridin-6-yl]urea]",659,1050
"COc1ncccc1-c1c(C)[nH]c2nc(NC(=O)[C@@H]3C[C@@H]3F)ccc12 [Compound 89, (1S,2S)-2-fluoro-N-(3-(2-methoxypyridin-3-yl)-2-methyl-1H-pyrrolo[2,3-b]pyridin-6-yl)cyclopropane-1-carboxamide]",219,337
"COc1nc2[nH]ccc2cc1-c1c[nH]c2nc(NC(=O)[C@@H]3C[C@@H]3F)ccc12 [Compound 93, (1S,2S)-2-fluoro-N-(6′-methoxy-1H,1′H-[3,5′-bipyrrolo[2,3-b]pyridin]-6-yl)cyclopropane-1-carboxamide]",2.94,5.3
"COc1ccccc1-c1c[nH]c2nc(NC(=O)NCCN(C)C)ccc12 [Compound 97, 3-[2-(dimethylamino)ethyl]-1-[3-(2-methoxyphenyl)-1H-pyrrolo[2,3-b]pyridin-6-yl]urea]",61.6,199
"COc1c(F)cccc1-c1n[nH]c2nc(NC(=O)[C@@H]3C[C@@H]3F)ccc12 [Compound 100, (1S,2S)-2-fluoro-N-(3-(3-fluoro-2-methoxyphenyl)-1H-pyrazolo[3,4-b]pyridin-6-yl)cyclopropane-1-carboxamide]",105,98.2
"COc1ccccc1-c1c[nH]c2nc(NC(=O)NCCC#N)ccc12 [Compound 104, 3-(2-cyanoethyl)-1-[3-(2-methoxyphenyl)-1H-pyrrolo[2,3-b]pyridin-6-yl]urea]",29.1,102
"COc1c(-c2c[nH]c3nc(NC(=O)[C@@H]4C[C@@H]4F)ccc23)ccn2ccnc12 [Compound 114, (1S,2S)-2-fluoro-N-(3-[8-methoxyimidazo[1,2-a]pyridin-7-yl]-1H-pyrrolo[2,3-b]pyridin-6-yl)cyclopropane-1-carboxamide]",150,51.4
"COc1c(F)cc(F)c(OC)c1-c1c[nH]c2nc(NC(=O)[C@@H]3C[C@@H]3F)ccc12 [Compound 120, (1S,2S)—N-[3-(3,5-difluoro-2,6-dimethoxyphenyl)-1H-pyrrolo[2,3-b]pyridin-6-yl]-2-fluorocyclopropane-1-carboxamide]",60.8,65.5
"COc1ccccc1-c1c[nH]c2nc(NC(=O)NCC3CC3)ccc12 [Compound 122, 3-(cyclopropylmethyl)-1-[3-(2-methoxyphenyl)-1H-pyrrolo[2,3-b]pyridin-6-yl]urea]",19.9,73.4
"COc1ccccc1-c1c[nH]c2nc(NC(=O)NC3CC3)ccc12 [Compound 123, 3-cyclopropyl-1-[3-(2-methoxyphenyl)-1H-pyrrolo[2,3-b]pyridin-6-yl]urea]",17.6,56.5
